Source: publication PMC10557102 (Pharmacology Research & Perspectives, 2023)
Like-named read-outs stand apart in the source and are kept apart here.

Key:
CYP2B6 [1] = biological target: T1, CYP2B6 (Homo sapiens, UniProt P20813); assay: Competitive; type: in vitro ADME
T1 sequence (P20813 1-491): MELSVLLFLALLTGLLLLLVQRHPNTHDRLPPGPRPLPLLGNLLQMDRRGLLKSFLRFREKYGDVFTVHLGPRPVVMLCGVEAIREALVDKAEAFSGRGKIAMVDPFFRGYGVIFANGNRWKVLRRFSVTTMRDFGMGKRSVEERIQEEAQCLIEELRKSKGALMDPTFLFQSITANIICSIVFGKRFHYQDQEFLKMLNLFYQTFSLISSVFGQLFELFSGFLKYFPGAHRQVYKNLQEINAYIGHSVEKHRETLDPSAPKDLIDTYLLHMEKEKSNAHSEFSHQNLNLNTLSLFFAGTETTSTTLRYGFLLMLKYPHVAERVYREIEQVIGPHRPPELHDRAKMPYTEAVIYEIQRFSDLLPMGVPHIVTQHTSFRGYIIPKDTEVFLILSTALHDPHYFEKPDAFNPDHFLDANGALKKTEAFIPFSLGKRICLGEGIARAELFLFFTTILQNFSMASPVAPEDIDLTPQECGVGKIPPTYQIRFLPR

CYP2C8 = biological target: T2, CYP2C8 (Homo sapiens, UniProt P10632); assay: Competitive; type: in vitro ADME
T2 sequence (P10632 1-490): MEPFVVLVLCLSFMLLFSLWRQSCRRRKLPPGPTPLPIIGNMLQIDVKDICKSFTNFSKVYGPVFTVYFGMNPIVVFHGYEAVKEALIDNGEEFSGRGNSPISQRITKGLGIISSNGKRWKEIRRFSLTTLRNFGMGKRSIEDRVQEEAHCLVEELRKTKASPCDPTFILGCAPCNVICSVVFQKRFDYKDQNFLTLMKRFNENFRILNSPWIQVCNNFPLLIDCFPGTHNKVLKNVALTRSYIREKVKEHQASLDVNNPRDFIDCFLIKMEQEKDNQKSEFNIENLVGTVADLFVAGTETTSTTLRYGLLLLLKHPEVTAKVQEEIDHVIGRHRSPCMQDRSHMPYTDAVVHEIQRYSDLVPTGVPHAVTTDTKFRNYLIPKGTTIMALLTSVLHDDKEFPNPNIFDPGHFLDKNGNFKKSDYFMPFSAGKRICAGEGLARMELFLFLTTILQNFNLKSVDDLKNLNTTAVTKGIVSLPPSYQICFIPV

CYP2C9 [2] = biological target: T3, CYP2C9 (Homo sapiens, UniProt P11712); assay: Competitive; type: in vitro ADME
T3 sequence (P11712 whole entry): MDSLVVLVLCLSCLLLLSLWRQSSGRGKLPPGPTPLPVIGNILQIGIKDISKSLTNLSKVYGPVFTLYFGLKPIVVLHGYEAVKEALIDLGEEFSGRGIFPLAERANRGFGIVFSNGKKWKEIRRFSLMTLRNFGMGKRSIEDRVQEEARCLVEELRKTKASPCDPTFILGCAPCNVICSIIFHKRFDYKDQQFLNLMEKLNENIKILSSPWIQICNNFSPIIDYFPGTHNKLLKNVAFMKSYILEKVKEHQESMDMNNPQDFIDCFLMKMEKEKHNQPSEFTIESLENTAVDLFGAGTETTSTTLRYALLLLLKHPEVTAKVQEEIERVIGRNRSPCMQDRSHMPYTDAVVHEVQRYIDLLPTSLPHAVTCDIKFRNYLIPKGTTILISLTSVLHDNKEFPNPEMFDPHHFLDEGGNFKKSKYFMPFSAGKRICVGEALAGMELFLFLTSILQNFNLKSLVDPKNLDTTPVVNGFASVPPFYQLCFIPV

CYP2D6 = CYP2D6 (Homo sapiens, UniProt P10635); assay: Competitive; type: in vitro ADME
Sequence of CYP2D6 (P10635 whole entry): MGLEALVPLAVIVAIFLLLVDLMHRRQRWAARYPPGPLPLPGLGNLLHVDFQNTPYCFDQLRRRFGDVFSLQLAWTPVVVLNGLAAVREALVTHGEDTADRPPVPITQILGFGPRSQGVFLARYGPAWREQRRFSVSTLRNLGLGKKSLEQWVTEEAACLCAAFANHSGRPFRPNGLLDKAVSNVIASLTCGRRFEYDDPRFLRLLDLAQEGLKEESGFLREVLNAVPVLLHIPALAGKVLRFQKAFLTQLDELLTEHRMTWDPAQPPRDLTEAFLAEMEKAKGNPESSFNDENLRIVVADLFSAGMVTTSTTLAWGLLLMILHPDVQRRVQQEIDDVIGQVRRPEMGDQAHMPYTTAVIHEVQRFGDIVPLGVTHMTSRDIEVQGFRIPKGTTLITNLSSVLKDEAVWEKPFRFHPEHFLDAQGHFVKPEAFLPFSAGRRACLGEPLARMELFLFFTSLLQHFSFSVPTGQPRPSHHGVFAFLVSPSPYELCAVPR

CYP3A4 [3] = biological target: T4, CYP3A4 (Homo sapiens, UniProt P08684); assay: Competitive; type: in vitro ADME
T4 sequence (P08684 whole entry): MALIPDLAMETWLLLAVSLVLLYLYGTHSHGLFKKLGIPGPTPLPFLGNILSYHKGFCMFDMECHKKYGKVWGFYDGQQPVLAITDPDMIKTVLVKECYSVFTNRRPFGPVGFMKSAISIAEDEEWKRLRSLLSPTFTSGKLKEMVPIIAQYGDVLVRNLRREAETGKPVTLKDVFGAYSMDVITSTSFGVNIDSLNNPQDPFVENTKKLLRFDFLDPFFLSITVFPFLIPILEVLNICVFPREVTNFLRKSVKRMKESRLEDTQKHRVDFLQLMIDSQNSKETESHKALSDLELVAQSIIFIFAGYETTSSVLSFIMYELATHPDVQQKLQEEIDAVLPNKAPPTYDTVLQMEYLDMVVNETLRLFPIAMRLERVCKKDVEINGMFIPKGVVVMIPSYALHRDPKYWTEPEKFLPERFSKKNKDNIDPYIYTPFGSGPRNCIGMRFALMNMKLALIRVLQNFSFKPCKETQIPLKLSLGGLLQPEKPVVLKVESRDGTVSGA

CYP2A6 = biological target: T5, CYP2A6 (Homo sapiens, UniProt P11509); assay: Time-dependent; type: in vitro ADME; details: 30 min pre‐incubation with/without NADPH; coumarin 7‐hydroxylation
T5 sequence (P11509 1-494): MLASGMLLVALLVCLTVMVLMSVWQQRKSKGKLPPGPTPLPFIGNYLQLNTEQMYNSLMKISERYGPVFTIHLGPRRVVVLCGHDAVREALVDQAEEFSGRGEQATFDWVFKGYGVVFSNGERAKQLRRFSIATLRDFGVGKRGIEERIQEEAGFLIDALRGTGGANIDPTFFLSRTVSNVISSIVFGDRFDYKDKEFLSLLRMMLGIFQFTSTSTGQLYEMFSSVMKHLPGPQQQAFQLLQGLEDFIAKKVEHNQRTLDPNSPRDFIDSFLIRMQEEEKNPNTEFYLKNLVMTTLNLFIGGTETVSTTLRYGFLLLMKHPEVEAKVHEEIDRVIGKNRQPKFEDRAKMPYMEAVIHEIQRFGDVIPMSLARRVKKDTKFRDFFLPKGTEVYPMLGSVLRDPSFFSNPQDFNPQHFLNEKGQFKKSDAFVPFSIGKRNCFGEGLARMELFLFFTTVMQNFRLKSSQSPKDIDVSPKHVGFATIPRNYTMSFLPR

CYP2B6 [4] = biological target: T1, CYP2B6; assay: Time-dependent; type: in vitro ADME; details: 30 min pre‐incubation with/without NADPH; bupropion hydroxylation
CYP2C9 [5] = assay: Time-dependent; type: in vitro ADME, human; details: 30 min pre‐incubation with/without NADPH; diclofenac 4′‐hydroxylation
CYP2C9 [6] = biological target: T3, CYP2C9; assay: Covalent binding; type: in vitro ADME
CYP2C19 = CYP2C19 (Homo sapiens, UniProt P33261)
Sequence of CYP2C19 (P33261 whole entry): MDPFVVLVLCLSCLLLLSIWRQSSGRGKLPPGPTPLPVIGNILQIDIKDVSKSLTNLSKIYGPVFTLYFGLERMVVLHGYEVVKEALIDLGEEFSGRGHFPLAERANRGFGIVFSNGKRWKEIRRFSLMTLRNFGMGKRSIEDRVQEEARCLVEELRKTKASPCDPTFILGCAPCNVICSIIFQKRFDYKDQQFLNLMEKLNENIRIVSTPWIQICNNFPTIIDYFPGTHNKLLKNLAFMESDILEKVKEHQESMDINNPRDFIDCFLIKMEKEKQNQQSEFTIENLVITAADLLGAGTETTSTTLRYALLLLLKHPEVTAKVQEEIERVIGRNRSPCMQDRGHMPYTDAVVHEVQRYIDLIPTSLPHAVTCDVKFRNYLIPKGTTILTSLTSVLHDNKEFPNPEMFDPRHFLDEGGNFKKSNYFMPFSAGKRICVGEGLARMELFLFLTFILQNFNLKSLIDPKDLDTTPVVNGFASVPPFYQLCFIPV

human OX1R = details: OX1R vs OX2R; cited from earlier work
[7] = cited from earlier work
CYP3A4 [8] = biological target: T4, CYP3A4; details: in man; cited from earlier work

Cc1ccc(C(=O)N2CCOC[C@H]2Cc2cccc(-n3nccn3)c2)c(-n2nccn2)c1 [nivasorexant]
IC50 (CYP2B6 [1]): > 100 µM
IC50 (CYP2C8): 25 µM
IC50 (CYP2C9 [2]): 8.6 µM
Ki (CYP2C9 [2]): 5 µM
IC50 (CYP2D6): > 100 µM
IC50 (CYP3A4 [3]): 44 µM
IC50 (CYP3A4 [3]; IC50 (range over both probe substrates), midazolam and testosterone as probes): 19 to 44 µM
IC50 (CYP3A4 [3]; IC50, human liver microsomes, midazolam 1′‐hydroxylation): 19 µM
IC50 shift (CYP2A6): none
IC50 shift (CYP2B6 [4]): none
IC50 shift (CYP2C9 [5]): no effect and no pre‐incubation effect and none
covalent binding (in words) (CYP2C9 [6]): covalent binding
CYP2C19 inhibitor classification according to regulatory guidance (CYP2C19; after 1 day of 100 mg b.i.d.): moderate (≥ 2‐ to <5‐fold)
CYP2C19 inhibitor classification according to regulatory guidance (CYP2C19; after 8 days / repeated 100 mg b.i.d., steady state): strong (≥5‐fold)
higher potency at human OX1R than at human OX2R (human OX1R): approximately 60 fold
apparent mean terminal half‐life (t ½) ([7]; across dose levels, healthy subjects): 3.3 to 6.5 h
dose proportionality of AUCτ ([7]; multiple oral administration): dose proportional
dose proportionality of C max ([7]; multiple oral administration): less than dose proportional
extent of microsomal metabolism dependent on CYP3A4 (CYP3A4 [8]): approximately 90%
